Source: ChEMBL document CHEMBL1201862, “PubChem BioAssay data set” (2004)
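Following 48 hours of exposure in 96-well plates, responses at five concentrations were used to interpolate endpoints linearly. At the GI50, growth is halved.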 Active and inactive are the calls of the source. Cut-off read from the data, not from the text of the source: active = GI50 up to about 1.1 µM and inactive = higher.

What was measured:
Test in all cases: NCI-60 cell line screen, 48 h
786-0 = test system: 786-0
A549 = test system: A549
ACHN = test system: ACHN
BT-549 = test system: BT-549
CAKI-1 = test system: CAKI-1
CCRF-CEM = test system: CCRF-CEM
COLO 205 = test system: COLO 205
DU-145 = test system: DU-145
EKVX = test system: EKVX
HCC 2998 = test system: HCC 2998
HCT-116 = test system: HCT-116
HCT-15 = test system: HCT-15
HL-60 = test system: HL-60
HOP-62 = test system: HOP-62
HOP-92 = test system: HOP-92
HT-29 = test system: HT-29
Hs-578T = test system: Hs-578T
IGROV-1 = test system: IGROV-1
K562 = test system: K562
KM12 = test system: KM12
LOX IMVI = test system: LOX IMVI
M14 = test system: M14
MDA-MB-231 = test system: MDA-MB-231
MDA-MB-435 = test system: MDA-MB-435
MDA-N = test system: MDA-N
MOLT-4 = test system: MOLT-4
NCI-H226 = test system: NCI-H226
NCI-H23 = test system: NCI-H23
NCI-H460 = test system: NCI-H460
NCI-H522 = test system: NCI-H522
NCI/ADR-RES = test system: NCI/ADR-RES
OVCAR-3 = test system: OVCAR-3
OVCAR-8 = test system: OVCAR-8
PC-3 = test system: PC-3
RPMI-8226 = test system: RPMI-8226
RXF 393 = test system: RXF 393
SF-268 = test system: SF-268
SF-295 = test system: SF-295
SF-539 = test system: SF-539
SK-MEL-28 = test system: SK-MEL-28
SK-MEL-2 = test system: SK-MEL-2
SK-MEL-5 = test system: SK-MEL-5
SK-OV-3 = test system: SK-OV-3
SN12C = test system: SN12C
SNB-75 = test system: SNB-75
SR = test system: SR
SW-620 = test system: SW-620
T47D = test system: T47D
TK-10 = test system: TK-10
U-251 = test system: U-251
UACC-257 = test system: UACC-257
UACC-62 = test system: UACC-62
UO-31 = test system: UO-31
A498 = test system: A498
MCF7 = test system: MCF7
Malme-3M = test system: Malme-3M
OVCAR-4 = test system: OVCAR-4
OVCAR-5 = test system: OVCAR-5
SNB-19 = test system: SNB-19

Structure (SMILES): O=c1oc2ccc3ccccc3c2cc1-c1cn2ccccc2n1
- GI50 (786-0): 37.2 µM (inactive)
- GI50 (A549): 24.7 µM (inactive)
- GI50 (ACHN): 22.6 µM (inactive)
- GI50 (BT-549): > 100 µM (inactive)
- GI50 (CAKI-1): 11.8 µM (inactive)
- GI50 (CCRF-CEM): > 100 µM (inactive)
- GI50 (COLO 205): > 100 µM (inactive)
- GI50 (DU-145): > 100 µM (inactive)
- GI50 (EKVX): 30.5 µM (inactive)
- GI50 (HCC 2998): > 100 µM (inactive)
- GI50 (HCT-116): 14.9 µM (inactive)
- GI50 (HCT-15): > 100 µM
- GI50 (HL-60): > 100 µM (inactive)
- GI50 (HOP-62): 52.6 µM (inactive)
- GI50 (HOP-92): 90.6 µM (inactive)
- GI50 (HT-29): 26.5 µM (inactive)
- GI50 (Hs-578T): 35.6 µM (inactive)
- GI50 (IGROV-1): > 100 µM (inactive)
- GI50 (K562): > 100 µM (inactive)
- GI50 (KM12): 57.7 µM (inactive)
- GI50 (LOX IMVI): 91.8 µM (inactive)
- GI50 (M14): > 100 µM (inactive)
- GI50 (MDA-MB-231): 24.2 µM (inactive)
- GI50 (MDA-MB-435): > 100 µM (inactive)
- GI50 (MDA-N): > 100 µM (inactive)
- GI50 (MOLT-4): > 100 µM (inactive)
- GI50 (NCI-H226): > 100 µM (inactive)
- GI50 (NCI-H23): > 100 µM (inactive)
- GI50 (NCI-H460): > 100 µM (inactive)
- GI50 (NCI-H522): 26.3 µM (inactive)
- GI50 (NCI/ADR-RES): > 100 µM (inactive)
- GI50 (OVCAR-3): > 100 µM (inactive)
- GI50 (OVCAR-8): 51.3 µM (inactive)
- GI50 (PC-3): > 100 µM (inactive)
- GI50 (RPMI-8226): > 100 µM (inactive)
- GI50 (RXF 393): > 100 µM (inactive)
- GI50 (SF-268): 80.5 µM (inactive)
- GI50 (SF-295): 37.2 µM (inactive)
- GI50 (SF-539): 25.9 µM (inactive)
- GI50 (SK-MEL-28): > 100 µM (inactive)
- GI50 (SK-MEL-2): > 100 µM (inactive)
- GI50 (SK-MEL-5): > 100 µM (inactive)
- GI50 (SK-OV-3): 39.4 µM (inactive)
- GI50 (SN12C): 48.1 µM (inactive)
- GI50 (SNB-75): > 100 µM (inactive)
- GI50 (SR): > 100 µM (inactive)
- GI50 (SW-620): > 100 µM (inactive)
- GI50 (T47D): > 100 µM (inactive)
- GI50 (TK-10): 67.8 µM (inactive)
- GI50 (U-251): 24.2 µM (inactive)
- GI50 (UACC-257): > 100 µM (inactive)
- GI50 (UACC-62): > 100 µM (inactive)
- GI50 (UO-31): 20 µM (inactive)

Structure (SMILES): CC(=O)ON1C(=O)c2cccc3cccc(c23)C1=O
- GI50 (A498): 25.8 µM (inactive)
- GI50 (A549): 23.2 µM (inactive)
- GI50 (ACHN): 28.4 µM (inactive)
- GI50 (BT-549): 20.9 µM (inactive)
- GI50 (CAKI-1): 17.9 µM (inactive)
- GI50 (CCRF-CEM): 9.66 µM (inactive)
- GI50 (COLO 205): 26.8 µM (inactive)
- GI50 (DU-145): 15.1 µM (inactive)
- GI50 (EKVX): 28.1 µM (inactive)
- GI50 (HCC 2998): 31.6 µM (inactive)
- GI50 (HCT-116): 6.93 µM (inactive)
- GI50 (HCT-15): 18 µM
- GI50 (HL-60): 10.9 µM (inactive)
- GI50 (HOP-62): 22.8 µM (inactive)
- GI50 (HOP-92): > 100 µM (inactive)
- GI50 (HT-29): 27.2 µM (inactive)
- GI50 (Hs-578T): 23.6 µM (inactive)
- GI50 (IGROV-1): 7.28 µM (inactive)
- GI50 (K562): 20.1 µM (inactive)
- GI50 (KM12): 14.6 µM (inactive)
- GI50 (LOX IMVI): 14.2 µM (inactive)
- GI50 (M14): 21.6 µM (inactive)
- GI50 (MCF7): 16 µM (inactive)
- GI50 (MDA-MB-231): 29 µM (inactive)
- GI50 (MDA-MB-435): 14.7 µM (inactive)
- GI50 (MDA-N): 18.3 µM (inactive)
- GI50 (MOLT-4): 15.6 µM (inactive)
- GI50 (Malme-3M): 20 µM (inactive)
- GI50 (NCI-H23): 10.4 µM (inactive)
- GI50 (NCI-H460): 7.93 µM (inactive)
- GI50 (NCI-H522): 14.6 µM (inactive)
- GI50 (NCI/ADR-RES): 34.3 µM (inactive)
- GI50 (OVCAR-3): 19.5 µM (inactive)
- GI50 (OVCAR-4): 11.7 µM (inactive)
- GI50 (OVCAR-5): 35.1 µM (inactive)
- GI50 (OVCAR-8): 27.1 µM (inactive)
- GI50 (PC-3): 25.8 µM (inactive)
- GI50 (RPMI-8226): 12.7 µM (inactive)
- GI50 (RXF 393): 7.23 µM (inactive)
- GI50 (SF-268): 22.6 µM (inactive)
- GI50 (SF-295): 20.9 µM (inactive)
- GI50 (SF-539): 16.4 µM (inactive)
- GI50 (SK-MEL-28): 17.9 µM (inactive)
- GI50 (SK-MEL-2): 18.3 µM (inactive)
- GI50 (SK-MEL-5): 13.2 µM (inactive)
- GI50 (SK-OV-3): 34.4 µM (inactive)
- GI50 (SNB-19): 36.8 µM (inactive)
- GI50 (SW-620): 5.62 µM (inactive)
- GI50 (T47D): 20.8 µM (inactive)
- GI50 (TK-10): 31.7 µM (inactive)
- GI50 (U-251): 14.8 µM (inactive)
- GI50 (UACC-257): 23.8 µM (inactive)
- GI50 (UACC-62): 19.9 µM (inactive)
- GI50 (UO-31): 6.27 µM (inactive)

Structure (SMILES): CCCC1c2c(ccc3ccccc23)Oc2ccc3ccccc3c21
- GI50 (786-0): > 100 µM (inactive)
- GI50 (A498): 23.7 µM (inactive)
- GI50 (A549): 47.5 µM (inactive)
- GI50 (ACHN): 31 µM (inactive)
- GI50 (BT-549): > 100 µM (inactive)
- GI50 (CAKI-1): > 100 µM (inactive)
- GI50 (COLO 205): 41.9 µM (inactive)
- GI50 (DU-145): 84.3 µM (inactive)
- GI50 (EKVX): 33.5 µM (inactive)
- GI50 (HCT-116): 20.7 µM (inactive)
- GI50 (HCT-15): 31.6 µM
- GI50 (HOP-62): > 100 µM (inactive)
- GI50 (HOP-92): > 100 µM (inactive)
- GI50 (HT-29): 28.1 µM (inactive)
- GI50 (Hs-578T): > 100 µM (inactive)
- GI50 (IGROV-1): 50.7 µM (inactive)
- GI50 (KM12): 39.3 µM (inactive)
- GI50 (LOX IMVI): 32.5 µM (inactive)
- GI50 (M14): 74 µM (inactive)
- GI50 (MCF7): 15.5 µM (inactive)
- GI50 (MDA-MB-231): 31.7 µM (inactive)
- GI50 (MDA-MB-435): 41.4 µM (inactive)
- GI50 (MDA-N): 39.6 µM (inactive)
- GI50 (MOLT-4): 37.6 µM (inactive)
- GI50 (Malme-3M): 57.3 µM (inactive)
- GI50 (NCI-H226): 60.3 µM (inactive)
- GI50 (NCI-H23): 60.4 µM (inactive)
- GI50 (NCI-H460): 88.3 µM (inactive)
- GI50 (NCI-H522): 25.5 µM (inactive)
- GI50 (NCI/ADR-RES): 94 µM (inactive)
- GI50 (OVCAR-3): 61.4 µM (inactive)
- GI50 (OVCAR-4): > 100 µM (inactive)
- GI50 (OVCAR-5): 54.1 µM (inactive)
- GI50 (OVCAR-8): > 100 µM (inactive)
- GI50 (PC-3): 64.4 µM (inactive)
- GI50 (RPMI-8226): 45.2 µM (inactive)
- GI50 (RXF 393): 29.1 µM (inactive)
- GI50 (SF-268): 79.8 µM (inactive)
- GI50 (SF-295): 28.1 µM (inactive)
- GI50 (SF-539): > 100 µM (inactive)
- GI50 (SK-MEL-28): 68.4 µM (inactive)
- GI50 (SK-MEL-2): 20.3 µM (inactive)
- GI50 (SK-MEL-5): 34.7 µM (inactive)
- GI50 (SK-OV-3): > 100 µM (inactive)
- GI50 (SN12C): 65.3 µM (inactive)
- GI50 (SNB-19): > 100 µM (inactive)
- GI50 (SNB-75): > 100 µM (inactive)
- GI50 (SW-620): 82.4 µM (inactive)
- GI50 (T47D): 14.6 µM (inactive)
- GI50 (TK-10): 35.7 µM (inactive)
- GI50 (U-251): 40.2 µM (inactive)
- GI50 (UACC-257): 24.2 µM (inactive)
- GI50 (UACC-62): 84.9 µM (inactive)
- GI50 (UO-31): > 100 µM (inactive)
